Measurements taken from patent US10233188B2, “CDK2/4/6 inhibitors” (priority 2016, dated 2019).

Columns and labels:
[1] = biological target: CDK6/Cyclin D1 (Homo sapiens (Human), UniProt Q00534); assay: biochemical; conditions: CDK6_Ki (nM), non-phosphorylated CDK6/Cyclin D1, 2 mM ATP, Morrison fit
[2] = biological target: CDK2/Cyclin E1 (Homo sapiens (Human), UniProt P24941); assay: biochemical; conditions: CDK2_Ki (nM), phosphorylated CDK2/Cyclin E1, 150 μM ATP, Morrison tight-binding fit
Experimental: The assay was initiated with the addition of ATP, following a fifteen minutes pre-incubation of enzyme and inhibitor at room temperature in the reaction mixture. The reaction was stopped after 45 minutes at room temperature by the addition of 50 μL of 80 mM EDTA, pH 7.5.

CDK6/Cyclin D1, sequence (Q00534 whole entry): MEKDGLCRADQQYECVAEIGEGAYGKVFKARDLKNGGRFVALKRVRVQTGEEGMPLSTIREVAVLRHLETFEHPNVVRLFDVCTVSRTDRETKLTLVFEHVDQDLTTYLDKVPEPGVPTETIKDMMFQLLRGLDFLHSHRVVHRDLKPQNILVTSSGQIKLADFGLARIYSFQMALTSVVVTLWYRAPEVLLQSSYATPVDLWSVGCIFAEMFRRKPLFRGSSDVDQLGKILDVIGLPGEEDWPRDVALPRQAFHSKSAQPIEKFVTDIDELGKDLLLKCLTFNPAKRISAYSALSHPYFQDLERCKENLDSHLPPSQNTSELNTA
CDK6/Cyclin D1, sequence (P24385 whole entry partner): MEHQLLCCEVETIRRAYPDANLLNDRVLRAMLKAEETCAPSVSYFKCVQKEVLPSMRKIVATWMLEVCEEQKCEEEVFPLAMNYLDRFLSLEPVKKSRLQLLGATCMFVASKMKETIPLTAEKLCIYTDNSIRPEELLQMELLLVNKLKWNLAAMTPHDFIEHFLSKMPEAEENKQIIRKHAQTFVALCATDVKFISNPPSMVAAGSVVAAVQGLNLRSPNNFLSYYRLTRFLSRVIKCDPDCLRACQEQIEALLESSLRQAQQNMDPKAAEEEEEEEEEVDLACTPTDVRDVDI

SMILES	Ki [1]	Ki [2]
Cc1cc2cnc(NC3CCN(S(C)(=O)=O)CC3)nc2n(C2CCCCC(O)C2)c1=O (single isomer, unassigned; isomer a) [Example 223, 8-(3-hydroxycycloheptyl)-6-methyl-2-{[1-(methylsulfonyl)piperidin-4-yl]amino}pyrido[2,3-d]pyrimidin-7(8H)-one-Isomer A]	21 nM	57.1 nM
Cc1cc2cnc(NC3CCN(S(=O)(=O)C4CCS(=O)(=O)C4)CC3)nc2n([C@H]2CCC[C@]2(C)O)c1=O (single isomer, unassigned; isomer b) [Example 107, (+)-2-[(1-{[(3ξ)-1,1-dioxidotetrahydrothiophen-3-yl]sulfonyl}piperidin-4-yl)amino]-8-[(1R*,2R*)-2-hydroxy-2-methylcyclopentyl]-6-methylpyrido[2,3-d]pyrimidin-7(8H)-one-Isomer B]	184 nM	9.91 nM
CS(=O)(=O)N1CC[C@H](Nc2ncc3cc(N)c(=O)n(C4CCCC4)c3n2)[C@H](F)C1 (single isomer, unassigned; isomer b) [Example 150, 6-amino-8-cyclopentyl-2-{[(3R*,4S*)-3-fluoro-1-(methylsulfonyl)piperidin-4-yl]amino}pyrido[2,3-d]pyrimidin-7(8H)-one-Isomer B]	1.32 nM	2.63 nM
Cc1cc2cnc(NC3CCN(S(C)(=O)=O)CC3)nc2n(C2CCCCC(O)C2)c1=O (single isomer, unassigned; isomer b) [Example 224, 8-(3-hydroxycycloheptyl)-6-methyl-2-{[1-(methylsulfonyl)piperidin-4-yl]amino}pyrido[2,3-d]pyrimidin-7(8H)-one-Isomer B]	12 nM	24.9 nM
Cc1cc2cnc(NC3CCN(S(=O)(=O)C4CCS(=O)(=O)C4)CC3)nc2n([C@H]2CCC[C@]2(C)O)c1=O (single isomer, unassigned; isomer c) [Example 108, (+)-2-[(1-{[(3ξ)-1,1-dioxidotetrahydrothiophen-3-yl]sulfonyl}piperidin-4-yl)amino]-8-[(1R*,2R*)-2-hydroxy-2-methylcyclopentyl]-6-methylpyrido[2,3-d]pyrimidin-7(8H)-one-Isomer C]	3.99 nM	3.27 nM
Cc1cc2cnc(NC3CCN(S(C)(=O)=O)CC3)nc2n(C2CCCCC(O)C2)c1=O (single isomer, unassigned; isomer c) [Example 225, 8-(3-hydroxycycloheptyl)-6-methyl-2-{[1-(methylsulfonyl)piperidin-4-yl]amino}pyrido[2,3-d]pyrimidin-7(8H)-one-Isomer C]	3.13 nM	4.63 nM
Cc1cc2cnc(NC3CCN(S(=O)(=O)C4CCS(=O)(=O)C4)CC3)nc2n([C@@H]2CCC[C@@]2(C)O)c1=O (single isomer, unassigned; isomer d) [Example 109, (−)-2-[(1-{[(3ξ)-1,1-dioxidotetrahydrothiophen-3-yl]sulfonyl}piperidin-4-yl)amino]-8-[(1R*,2R*)-2-hydroxy-2-methylcyclopentyl]-6-methylpyrido[2,3-d]pyrimidin-7(8H)-one-Isomer D]	0.19 nM	0.14 nM
Cc1cc2cnc(NC3CCN(S(C)(=O)=O)CC3)nc2n(C2CCCCC(O)C2)c1=O (single isomer, unassigned; isomer d) [Example 226, 8-(3-hydroxycycloheptyl)-6-methyl-2-{[1-(methylsulfonyl)piperidin-4-yl]amino}pyrido[2,3-d]pyrimidin-7(8H)-one-Isomer D]	6.58 nM	310 nM
CC1CCC[C@@H]1n1c(=O)c(CC(N)=O)cc2cnc(NC3CCN(S(C)(=O)=O)CC3)nc21 (stereo in doubt) [Example 166, 2-(8-[(1S,2S)-2-methylcyclopentyl]-2-{[1-(methylsulfonyl)piperidin-4-yl]amino}-7-oxo-7,8-dihydropyrido[2,3-d]pyrimidin-6-yl)acetamide]	6.71 nM	2.23 nM
CNS(=O)(=O)N1CCC(Nc2ncc3ccc(=O)n(C4CCCC4)c3n2)CC1 [Example 11, 4-[(8-cyclopentyl-7-oxo-7,8-dihydropyrido[2,3-d]pyrimidin-2-yl)amino]-N-methylpiperidine-1-sulfonamide]	2.99 nM	0.67 nM
NS(=O)(=O)N1CCC(Nc2ncc3ccc(=O)n(C4CCCC4)c3n2)CC1 [Example 13, 4-[(8-cyclopentyl-7-oxo-7,8-dihydropyrido[2,3-d]pyrimidin-2-yl)amino]piperidine-1-sulfonamide]	0.88 nM	0.19 nM
COCCS(=O)(=O)N1CCC(Nc2ncc3ccc(=O)n(C4CCCC4)c3n2)CC1 [Example 15, 8-cyclopentyl-2-({1-[(2-methoxyethyl)sulfonyl]piperidin-4-yl}amino)pyrido[2,3-d]pyrimidin-7(8H)-one]	0.76 nM	0.46 nM
CCS(=O)(=O)N1CCC(Nc2ncc3ccc(=O)n(C4CCCC4)c3n2)CC1 [Example 16, 8-cyclopentyl-2-{[1-(ethylsulfonyl)piperidin-4-yl]amino}pyrido[2,3-d]pyrimidin-7(8H)-one]	1.14 nM	0.48 nM
CC(C)(O)CS(=O)(=O)N1CCC(Nc2ncc3ccc(=O)n(C4CCCC4)c3n2)CC1 [Example 17, 8-cyclopentyl-2-({1-[(2-hydroxy-2-methylpropyl)sulfonyl]piperidin-4-yl}amino)pyrido[2,3-d]pyrimidin-7(8H)-one]	2.33 nM	1.79 nM
CS(=O)(=O)CS(=O)(=O)N1CCC(Nc2ncc3ccc(=O)n(C4CCCC4)c3n2)CC1 [Example 18, 8-cyclopentyl-2-[(1-{[(methylsulfonyl)methyl]sulfonyl}piperidin-4-yl)amino]pyrido[2,3-d] pyrimidin-7(8H)-one]	2.44 nM	1.19 nM
CNS(=O)(=O)N1CCC(Nc2ncc3ccc(=O)n(C4CCCCCC4)c3n2)CC1 [Example 20, 4-[(8-cycloheptyl-7-oxo-7,8-dihydropyrido[2,3-d]pyrimidin-2-yl)amino]-N-methylpiperidine-1-sulfonamide]	1.95 nM	0.42 nM
NS(=O)(=O)N1CCC(Nc2ncc3ccc(=O)n(C4CCCCCC4)c3n2)CC1 [Example 21, 4-[(8-cycloheptyl-7-oxo-7,8-dihydropyrido[2,3-d]pyrimidin-2-yl)amino]piperidine-1-sulfonamide]	7 nM	0.29 nM
CNS(=O)(=O)N1CCC(Nc2ncc3cc(C)c(=O)n(C4CCCC4)c3n2)CC1 [Example 23, 4-[(8-cyclopentyl-6-methyl-7-oxo-7,8-dihydropyrido[2,3-d]pyrimidin-2-yl)amino]-N-methylpiperidine-1-sulfonamide]	0.62 nM	0.78 nM
Cc1cc2cnc(NC3CCN(S(N)(=O)=O)CC3)nc2n(C2CCCC2)c1=O [Example 25, 4-[(8-cyclopentyl-6-methyl-7-oxo-7,8-dihydropyrido[2,3-d]pyrimidin-2-yl)amino]piperidine-1-sulfonamide]	0.23 nM	0.22 nM
CS(=O)(=O)N1CCC(Nc2ncc3cc(N)c(=O)n(C4CCCC4)c3n2)CC1 [Example 28, 6-amino-8-cyclopentyl-2-{[1-(methylsulfonyl)piperidin-4-yl]amino}pyrido[2,3-d]pyrimidin-7(8H)-one]	1.2 nM	1.88 nM
